Patent publication US20040175378A1, “Selected antibody compositions and methods for binding to aminophospholipids” (Board of Regents, The University of Texas System, priority 2002, published 2004)

What was measured:
bEnd.3 endothelial cells = experiment: PS translocation and viability of bEnd.3 cells treated with H2O2; details: low levels of H2O2
HUVEC and HMVEC = experiment: Induction of PS exposure on endothelial cells, FACS of 3G4 binding; type: cell-based, Human; details: 10 nM, 24 hrs
Method: (§1) FIG. 24A and FIG. 24B. Induction of PS exposure on endothelial cells by docetaxel. Human umbilical vein endothelial cells (HUVEC) and human microvessel endothelial cells (HMVEC) were treated with 10 nM of docetaxel for 24 hrs. […] The cells were then washed twice, FITC labeled goat anti-mouse IgG was added and the cells incubated for a further 30 mins. on ice. The cells were then washed and analyzed by FACS using a FACSCalibur cytometer (Becton-Dickinson, San Jose, Calif.) with CellQuest acquisition software.
The induction of PS exposure on endothelial cells by subclinical concentrations of docetaxel was examined in vitro by FACS analysis. Human umbilical vein endothelial cells (HUVEC) and human microvessel endothelial cells (HMVEC) were treated with 10 nM of docetaxel for 24 hrs and examined by FACS. […] Docetaxel incubations for 48 and 72 hrs were also conducted.

[1] = tested on: 3LL, Colo26 and MDA-MB-435 cells; experiment: Induction of PS exposure on tumor cell lines, FACS of 3G4 binding; type: cell-based; details: 10 nM, 24 hrs, Colo26, MDA-MB-435
Method: as §1, with “25A, FIG. 25B” for “24A”, “25C.” for “24B.”, “tumor cell lines” for “endothelial cells”, “Mouse lewis lung carcinoma 3LL, mouse colon carcinoma Colo26” for “Human umbilical vein endothelial cells (HUVEC)”, “breast cancer MDA-MB-435” for “microvessel endothelial”, “cells” for “cells (HMVEC)”
The in vitro induction of PS exposure by subclinical concentrations of docetaxel was also examined by FACS analysis using a panel of tumor cell lines. Mouse lewis lung carcinoma 3LL, mouse colon carcinoma Colo26 and human breast cancer MDA-MB-435 cells were treated with 10 nM of docetaxel for 24 hrs and examined by FACS. […] Docetaxel incubations for 48 and 72 hrs were also conducted.

ABAE cells = experiment: PS exposure by 125I-annexin V binding; type: cell-based, bovine; details: 24 h
Method: (§2) All reagents were diluted in medium containing 10% serum and incubated with the cells at 37° C. for 24 h.
(§3) To study the effect of hypoxia, cells were seeded on 24 well plates and were incubated in a humidified normoxic atmosphere (21% O2, 5% CO2) for 48 h before being transferred to a humidified hypoxic atmosphere (1% O2, 5% CO2, 94% N2) in a sealed chamber (Billups Rothenberg Inc., Del Mar, Calif.). Cells were incubated in a hypoxic chamber for 24 h at 37° C. and were then returned to a normoxic environment for 4 h at 37° C. The cells were compared to a parallel culture from an identical passage, seeded on the same day and maintained entirely under normoxic conditions. In some studies, IL-1α (10 ng/ml) and TNFα (20 ng/ml) were added to the medium before transfer to the hypoxic chamber.
(§4) After treatment with the reagents described above, treated and control cells were incubated with 7.1 pmoles of ^125I-labeled annexin V (200 μl/well) in the binding buffer. After 2 h incubation at room temperature, cells were washed extensively and dissolved in 0.5 M of NaOH. The entire volume of 0.5 ml was transferred to plastic tubes and counted in a gamma counter. Non-specific binding was determined in the presence of 5 mM EDTA and was subtracted from experimental values. The results were expressed as net pmoles of cell-bound annexin V, normalized per 1×10^6 cells.
(§5) Maximal binding of annexin V was determined on cells simultaneously treated with actinomycin D and TNFα (50 ng/ml of each component). As has been previously reported, these agents cause apoptosis and PS exposure in 90-100% of endothelial cells (Lucas et al., 1998). Basal binding of ^125I-annexin V to untreated cells was determined in the presence of medium with 10% serum. The amount of ^125I-annexin V that bound to the untreated cultures was subtracted from that in the treated cultures. Exposure of PS was calculated according to the following formula: cell-bound annexin V (pmoles) under experimental conditions divided by maximal annexin V binding (pmoles), multiplied by 100. Each study was performed in duplicate and was performed at least three times. Mean values were calculated. The SE of the mean values from three separate experiments was less than 5%.

bEnd.3 cells = experiment: PS exposure by 125I-annexin V binding; type: cell-based, Mouse; details: bEnd.3, 24 h
Method: as §2, §3, §4, §5

OO [Hydrogen peroxide, hydrogen peroxide]
cell viability (bEnd.3 endothelial cells): 95%

CC(=O)O[C@@]12CO[C@@H]1C[C@H](O)[C@@]1(C)C(=O)[C@H](O)C3=C(C)[C@@H](OC(=O)[C@H](O)[C@@H](NC(=O)OC(C)(C)C)c4ccccc4)C[C@@](O)([C@@H](OC(=O)c4ccccc4)[C@H]21)C3(C)C [docetaxel]
3G4 binding as compared to untreated cells (HUVEC and HMVEC): significant increase in 3G4 binding
3G4 binding as compared with untreated cells [1]: significant increase in 3G4 binding

FGF-2: human fibroblast growth factor-2
^125I-Annexin V (% of Max binding) (ABAE cells; 20 ng/ml): 0%
^125I-Annexin V (% of Max binding) (bEnd.3 cells; 20 ng/ml): 0%

IL-6: interleukin-6
^125I-Annexin V (% of Max binding) (ABAE cells; 20 ng/ml): 0%
^125I-Annexin V (% of Max binding) (bEnd.3 cells; 20 ng/ml): 0%

IL-8: interleukin-8
^125I-Annexin V (% of Max binding) (ABAE cells; 20 ng/ml): 0%
^125I-Annexin V (% of Max binding) (bEnd.3 cells; 20 ng/ml): 0%

IL-10: interleukin-10
^125I-Annexin V (% of Max binding) (ABAE cells; 20 ng/ml): 0%
^125I-Annexin V (% of Max binding) (bEnd.3 cells; 20 ng/ml): 0%

Interferon
^125I-Annexin V (% of Max binding) (ABAE cells; 40 ng/ml): 8.6%
^125I-Annexin V (% of Max binding) (bEnd.3 cells; 40 ng/ml): 2.8%

Scatter factor: recombinant hepatocyte growth factor
^125I-Annexin V (% of Max binding) (ABAE cells; 40 ng/ml): 0%
^125I-Annexin V (% of Max binding) (bEnd.3 cells; 40 ng/ml): 0%

TGF β1: growth factor
^125I-Annexin V (% of Max binding) (ABAE cells; 20 ng/ml): 0%
^125I-Annexin V (% of Max binding) (bEnd.3 cells; 20 ng/ml): 0%

TNFα
^125I-Annexin V (% of Max binding) (ABAE cells; 20 ng/ml): 7.4%
^125I-Annexin V (% of Max binding) (bEnd.3 cells; 20 ng/ml): 13.7%

Thrombin
^125I-Annexin V (% of Max binding) (ABAE cells; 50 nM): 8.8%
^125I-Annexin V (% of Max binding) (bEnd.3 cells; 50 nM): 17.4%

VEGF
^125I-Annexin V (% of Max binding) (ABAE cells; 20 ng/ml): 0%
^125I-Annexin V (% of Max binding) (bEnd.3 cells; 20 ng/ml): 0%

B1: IL-1α: recombinant murine interleukin-1 alpha (protein, UniProt P01582 115-270, looked up)
Interleukin-1 alpha: SAPYTYQSDLRYKLMKLVRQKFVMNDSLNQTIYQDVDKHYLSTTWLNDLQQEVKFDMYAYSSGGDDSKYPVTLKISDSQLFVSAQGEDQPVLLKELPETPKLITGSETDLIFFWKSINSKNYFTSAAYPELFIATKEQSRVHLARGLPSMTDFQIS
^125I-Annexin V (% of Max binding) (ABAE cells; 10 ng/ml): 6.4%
^125I-Annexin V (% of Max binding) (bEnd.3 cells; 10 ng/ml): 7.5%

B2: IL-1β: recombinant murine interleukin-1 beta (protein, UniProt P10749 118-269, looked up)
Interleukin-1 beta: VPIRQLHYRLRDEQQKSLVLSDPYELKALHLNGQNINQQVIFSMSFVQGEPSNDKIPVALGLKGKNLYLSCVMKDGTPTLQLESVDPKQYPKKKMEKRFVFNKIEVKSKVEFESAEFPNWYISTSQAEHKPVFLGNNSGQDIIDFTMESVSS
^125I-Annexin V (% of Max binding) (ABAE cells; 10 ng/ml): 5.8%
^125I-Annexin V (% of Max binding) (bEnd.3 cells; 10 ng/ml): 5.5%
